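Method: 48-hour compound exposure of cells in 96-well plates, five concentrations, linear interpolation of endpoints. The concentration for 50% growth inhibition is given as GI50.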 Active and inactive are the calls of the source. Rule as the data show it: active = GI50 up to about 1.1 µM and inactive = higher.

The results in this text go back to ChEMBL document CHEMBL1201862, “PubChem BioAssay data set” (2004).

Test systems include NCI-H460; OVCAR-4; A549; DU-145; EKVX; U-251; HCT-116; MDA-MB-435; MCF7; HOP-62; SN12C; OVCAR-8; RXF 393; MOLT-4; NCI-H522; SR; OVCAR-3; TK-10; MDA-N.
What all share (experiment): NCI-60 cell line screen, 48 h

For `O=C1C(Sc2ccc3ccccc3c2)=C(Sc2ccc3ccccc3c2)C(=O)c2ccccc21`, the GI50 with NCI-H460 was 7.82 µM (inactive); in the experiment with OVCAR-4, 3.47 µM (inactive); in the experiment on A549, 4.72 µM (inactive); in the experiment with DU-145 it was 22 µM (inactive); in the experiment on EKVX it was 10.5 µM (inactive); in the experiment with U-251 it was 6.21 µM (inactive). Further, the GI50 in the experiment on HCT-116 was 7.59 µM (inactive); in the experiment with MDA-MB-435, 17.7 µM (inactive); with MCF7, 11.2 µM (inactive); in the experiment with HOP-62 it was 13.1 µM (inactive); with SN12C, 12.1 µM (inactive); with OVCAR-8, 10.5 µM (inactive). Besides, the values for the GI50 in the experiment with RXF 393, with MOLT-4 and in the experiment on NCI-H522 were 14.8 µM (inactive), 2.32 µM (inactive) and 1.97 µM (inactive), respectively.
On to `C#CCOCn1cnc2ncnc(N)c21`, for which the GI50 in the experiment on NCI-H460, in the experiment on SR, with OVCAR-3, in the experiment with OVCAR-4, with A549 and with EKVX was > 100 µM (inactive) in each case. For the same molecule, the GI50 in the experiment with U-251, in the experiment on TK-10, in the experiment with HCT-116, in the experiment on HOP-62, in the experiment with SN12C and in the experiment on OVCAR-8 was > 100 µM (inactive) throughout. Besides, the GI50 in the experiment on RXF 393, with MOLT-4 and with NCI-H522 was > 100 µM (inactive) each time.
`COc1ccc2c(-c3ccc(OCCN(C)C)cc3)c(Oc3ccccc3)c(=O)oc2c1`: the GI50 is 7.64 µM (inactive) in the experiment on NCI-H460; 2.07 µM (inactive) with SR; 7.64 µM (inactive) with OVCAR-3; 16.9 µM (inactive) with OVCAR-4; 3.37 µM (inactive) with A549; 12.2 µM (inactive) in the experiment with DU-145. Besides, the GI50 with EKVX is 11.1 µM (inactive); with U-251, 2.82 µM (inactive); with TK-10, 9.79 µM (inactive); in the experiment with HCT-116 it was 2.58 µM (inactive); with MDA-MB-435, 2.48 µM (inactive); in the experiment on MCF7, 3.57 µM (inactive). For the same molecule, the GI50 in the experiment with HOP-62 is 13 µM (inactive); in the experiment with SN12C, 6.71 µM (inactive); in the experiment on OVCAR-8, 10.5 µM (inactive); with RXF 393, 4.76 µM (inactive); in the experiment with MOLT-4, 2.71 µM (inactive); in the experiment on NCI-H522 it was 3.48 µM (inactive).
Regarding `COc1cc(N(CCC#N)CCC#N)ccc1/C=N\NC(=O)c1ccc(C)cc1`, the GI50 with NCI-H460 was > 100 µM (inactive); in the experiment on OVCAR-3 it was 75.2 µM (inactive); with OVCAR-4 it was > 100 µM (inactive); with A549, > 100 µM (inactive); with DU-145, > 100 µM (inactive); in the experiment on EKVX, > 100 µM (inactive). In addition, the GI50 in the experiment on U-251 is 16.4 µM (inactive); in the experiment with TK-10, > 100 µM (inactive); with HCT-116, > 100 µM (inactive); with MDA-MB-435, > 100 µM (inactive); in the experiment with HOP-62 it was > 100 µM (inactive); with MDA-N it was > 100 µM (inactive). Besides, the GI50 in the experiment with SN12C, in the experiment with OVCAR-8, with RXF 393, in the experiment with MOLT-4 and with NCI-H522 was > 100 µM (inactive) each time.
For the molecule `CSC(SC)=C(C#N)C(=O)Nc1cccc(Cl)c1`, the GI50 in the experiment on NCI-H460 is 59.8 µM (inactive); in the experiment on OVCAR-4, 27.9 µM (inactive); in the experiment with A549, 65.9 µM (inactive); in the experiment on EKVX it was > 100 µM (inactive); in the experiment with U-251 it was 76.7 µM (inactive); in the experiment on TK-10, 59.3 µM (inactive). The GI50 with HCT-116 was 30.6 µM (inactive); with MDA-MB-435 it was > 100 µM (inactive); with MCF7, 34.8 µM (inactive); in the experiment with HOP-62, 67.9 µM (inactive); with MDA-N, 58.5 µM (inactive); in the experiment with SN12C it was > 100 µM (inactive). The GI50 in the experiment on OVCAR-8 is 48.8 µM (inactive); with RXF 393, > 100 µM (inactive); with MOLT-4 it was 20.5 µM (inactive); in the experiment on NCI-H522, 17.5 µM (inactive).
As to `CCOC(=O)NC1CN2CCC1CC2` (stereo not drawn), the GI50 with NCI-H460, with SR, in the experiment with OVCAR-3, with OVCAR-4, in the experiment on A549 and in the experiment on DU-145 was > 100 µM (inactive) in each case. For the same molecule, the GI50 with EKVX, with U-251, in the experiment on HCT-116, in the experiment with MDA-MB-435, in the experiment on HOP-62 and with MDA-N was > 100 µM (inactive) in each case. Besides, the GI50 in the experiment with SN12C, in the experiment on OVCAR-8, in the experiment with RXF 393, in the experiment on MOLT-4 and in the experiment with NCI-H522 was > 100 µM (inactive) throughout.
As to `COc1cc(C2c3cc4c(cc3[C@@H](Nc3ccccc3)C3CO[C@@H](OC)[C@H]23)OCO4)cc(OC)c1O` (stereo partly drawn), the GI50 in the experiment with NCI-H460 is 1.11 µM (active); in the experiment with SR it was 1.95 µM (inactive); in the experiment on OVCAR-4 it was > 25 µM (inactive); in the experiment with A549 it was 2.13 µM (inactive); in the experiment with EKVX, 20.7 µM (inactive); in the experiment on U-251, 5.55 µM (inactive). Further, the GI50 was 9.46 µM (inactive) with TK-10; 7.38 µM (inactive) in the experiment with HCT-116; 9.79 µM (inactive) with MDA-MB-435; 4.5 µM (inactive) in the experiment on MCF7; 7.11 µM (inactive) in the experiment on HOP-62; 7.36 µM (inactive) in the experiment on SN12C. The figures for the GI50 in the experiment on OVCAR-8, in the experiment on MOLT-4 and in the experiment with NCI-H522 were 7.03 µM (inactive), 0.984 µM (active) and 6.58 µM (inactive), respectively.
Consider `COc1cc2c(c(OC)c1O)-c1ccc(OC)c(=O)cc1[C@@H](NC(=O)C(F)(F)F)CC2`, for which the GI50 in the experiment with NCI-H460 is 0.207 µM (active); in the experiment on OVCAR-3, 0.0307 µM (active); in the experiment with OVCAR-4, > 26.1 µM (inactive); in the experiment on A549 it was 0.472 µM (active); with DU-145 it was 0.361 µM (active); in the experiment with EKVX, 1.53 µM (inactive). Further, the GI50 with U-251 was 0.324 µM (active); in the experiment with TK-10, > 100 µM (inactive); in the experiment on HCT-116, 0.0474 µM (active); in the experiment on MDA-MB-435, 0.0206 µM (active); in the experiment with MCF7 it was 0.0441 µM (active); with HOP-62, 0.192 µM (active). Also, the GI50 in the experiment with MDA-N was 0.0262 µM (active); in the experiment with SN12C, 2.52 µM (inactive); with OVCAR-8 it was 0.243 µM (active); in the experiment on NCI-H522 it was 0.0235 µM (active).
`O=c1cc(-c2ccccc2)oc2ccc(-c3ccc4oc(-c5ccccc5)cc(=O)c4c3)cc12`: the GI50 is 19.6 µM (inactive) with NCI-H460; > 10 µM (inactive) with OVCAR-3; 19.3 µM (inactive) with OVCAR-4; 16.7 µM (inactive) with A549; 3.75 µM (inactive) in the experiment with EKVX; 29.4 µM (inactive) in the experiment on TK-10. Moreover, the GI50 is 15.9 µM (inactive) with HCT-116; 17.8 µM (inactive) in the experiment with MDA-MB-435; 18.8 µM (inactive) in the experiment with MCF7; 19.1 µM (inactive) with HOP-62; 15.4 µM (inactive) in the experiment on MDA-N; > 10 µM (inactive) with SN12C. Also, the GI50 was 16.6 µM (inactive) in the experiment with OVCAR-8 and 11.2 µM (inactive) in the experiment with MOLT-4.
